Measurements as given in patent US20080208071A1, “Measurement of Gastric Acid Secretion” (THE LEEDS TEACHING HOSPITALS NHS TRUST, priority 2005, published 2008).

What was measured:
[1] = system: gastric acid secretion; assay: 13C calcium carbonate breath test, Example 1 (250 mg every 15 minutes over 4 hours); details: human volunteer; oral 250 mg calcium carbonate (10 atom % 13C) every 15 minutes over 4 hours; two experiments; FIG. 1
Method: At 10 minute intervals, samples of exhaled (expired) air were obtained from the subject by breathing into a suitable collection vessel such as a test tube. The expired air was subjected to mass spectrometry to measure the ratio of ^13C to ^12C in the exhaled carbon dioxide.
In a second experiment the subject was treated with omeprazole 20 mg daily for two weeks and the experiment repeated twice under otherwise identical conditions.
The subject then did two further experiments again under otherwise identical conditions but now including a daily dosage of 40 mg of omeprazole.

[2] = system: gastric acid secretion; assay: 13C calcium carbonate breath test, Example 2 (initial 2 g, then 500 mg every 5 minutes over 3 hours); details: human volunteer; oral 2 g then 500 mg calcium carbonate (10 atom % 13C) every 5 minutes over 3 hours; two experiments; FIG. 4

For `O=C([O-])[O-].[Ca+2]` [^13C labelled calcium carbonate, calcium carbonate], the “time at which the rise in 13C in exhaled carbon dioxide begins to plateau” value [1] was “about 120 minutes” and the “time at which the rise in 13C in exhaled carbon dioxide begins to plateau” value [2] was “about 120 minutes”.
